Assay: xn = mol fraction of the nth substance listed

CCCCCCCC[n+]1ccccc1.[Br-] + NCC(=O)O + O
100 kPa
Conditions	electrical conductivity [S/m]
288.15 K, x2 = 0.0008947, x1 = 0.006107	1.24
288.15 K, x2 = 0.000895, x1 = 0.005825	1.21
288.15 K, x2 = 0.0008952, x1 = 0.005524	1.18
288.15 K, x2 = 0.0008955, x1 = 0.005206	1.15
288.15 K, x2 = 0.0008958, x1 = 0.004856	1.11
288.15 K, x2 = 0.0008962, x1 = 0.004472	1.07
288.15 K, x2 = 0.0008965, x1 = 0.004053	1
288.15 K, x2 = 0.0008969, x1 = 0.003596	0.923
288.15 K, x2 = 0.0008974, x1 = 0.003095	0.831
288.15 K, x2 = 0.0008979, x1 = 0.00254	0.716
288.15 K, x2 = 0.0008984, x1 = 0.00193	0.579
288.15 K, x2 = 0.0008988, x1 = 0.001523	0.48
288.15 K, x2 = 0.0008992, x1 = 0.00113	0.377
288.15 K, x2 = 0.0008996, x1 = 0.000679	0.257
288.15 K, x2 = 0.001793, x1 = 0.003383	0.886
288.15 K, x2 = 0.001794, x1 = 0.002789	0.766
288.15 K, x2 = 0.001795, x1 = 0.002127	0.621
288.15 K, x2 = 0.001796, x1 = 0.00171	0.522
288.15 K, x2 = 0.001797, x1 = 0.0007678	0.279
288.15 K, x2 = 0.001797, x1 = 0.001253	0.407
293.15 K, x2 = 0.0008947, x1 = 0.006101	1.41
293.15 K, x2 = 0.000895, x1 = 0.005819	1.38
293.15 K, x2 = 0.0008952, x1 = 0.005519	1.34
293.15 K, x2 = 0.0008955, x1 = 0.005201	1.3
293.15 K, x2 = 0.0008958, x1 = 0.00485	1.26
293.15 K, x2 = 0.0008962, x1 = 0.004469	1.21
293.15 K, x2 = 0.0008965, x1 = 0.00405	1.13
293.15 K, x2 = 0.0008969, x1 = 0.003594	1.05
293.15 K, x2 = 0.0008974, x1 = 0.003091	0.935
293.15 K, x2 = 0.0008979, x1 = 0.002538	0.809
293.15 K, x2 = 0.0008985, x1 = 0.001923	0.652
293.15 K, x2 = 0.0008988, x1 = 0.001521	0.542
293.15 K, x2 = 0.0008992, x1 = 0.00113	0.423
293.15 K, x2 = 0.0008996, x1 = 0.000679	0.285
293.15 K, x2 = 0.001793, x1 = 0.003379	1
293.15 K, x2 = 0.001794, x1 = 0.002785	0.864
293.15 K, x2 = 0.001795, x1 = 0.002125	0.701
293.15 K, x2 = 0.001796, x1 = 0.001708	0.589
293.15 K, x2 = 0.001797, x1 = 0.0007678	0.312
293.15 K, x2 = 0.001797, x1 = 0.001251	0.458
298.15 K, x2 = 0.0008947, x1 = 0.006092	1.59
298.15 K, x2 = 0.000895, x1 = 0.005812	1.55
298.15 K, x2 = 0.0008952, x1 = 0.005512	1.51
298.15 K, x2 = 0.0008955, x1 = 0.005195	1.47
298.15 K, x2 = 0.0008958, x1 = 0.004845	1.42
298.15 K, x2 = 0.0008962, x1 = 0.004462	1.35
298.15 K, x2 = 0.0008965, x1 = 0.004044	1.27
298.15 K, x2 = 0.000897, x1 = 0.003589	1.18
298.15 K, x2 = 0.0008974, x1 = 0.003088	1.05
298.15 K, x2 = 0.0008979, x1 = 0.002534	0.906
298.15 K, x2 = 0.0008985, x1 = 0.001921	0.725
298.15 K, x2 = 0.0008988, x1 = 0.001519	0.603
298.15 K, x2 = 0.0008992, x1 = 0.001128	0.473
298.15 K, x2 = 0.0008996, x1 = 0.0006772	0.315
298.15 K, x2 = 0.001793, x1 = 0.003376	1.11
298.15 K, x2 = 0.001794, x1 = 0.002781	0.967
298.15 K, x2 = 0.001795, x1 = 0.002123	0.782
298.15 K, x2 = 0.001796, x1 = 0.001706	0.657
298.15 K, x2 = 0.001797, x1 = 0.000766	0.347
298.15 K, x2 = 0.001797, x1 = 0.001249	0.511
303.15 K, x2 = 0.0008947, x1 = 0.006085	1.78
303.15 K, x2 = 0.000895, x1 = 0.005803	1.74
303.15 K, x2 = 0.0008952, x1 = 0.005503	1.69
303.15 K, x2 = 0.0008955, x1 = 0.005188	1.64
303.15 K, x2 = 0.0008958, x1 = 0.004838	1.58
303.15 K, x2 = 0.0008962, x1 = 0.004456	1.51
303.15 K, x2 = 0.0008965, x1 = 0.004039	1.42
303.15 K, x2 = 0.000897, x1 = 0.003583	1.3
303.15 K, x2 = 0.0008974, x1 = 0.003082	1.17
303.15 K, x2 = 0.0008979, x1 = 0.002531	1
303.15 K, x2 = 0.0008985, x1 = 0.001917	0.791
303.15 K, x2 = 0.0008988, x1 = 0.001517	0.654
303.15 K, x2 = 0.0008992, x1 = 0.001126	0.519
303.15 K, x2 = 0.0008996, x1 = 0.0006772	0.351
303.15 K, x2 = 0.001793, x1 = 0.00337	1.24
303.15 K, x2 = 0.001794, x1 = 0.002778	1.08
303.15 K, x2 = 0.001795, x1 = 0.002119	0.859
303.15 K, x2 = 0.001796, x1 = 0.001704	0.719
303.15 K, x2 = 0.001797, x1 = 0.000766	0.383
303.15 K, x2 = 0.001797, x1 = 0.001247	0.566
308.15 K, x2 = 0.0008947, x1 = 0.006075	2.03
308.15 K, x2 = 0.000895, x1 = 0.005792	1.97
308.15 K, x2 = 0.0008952, x1 = 0.005494	1.9
308.15 K, x2 = 0.0008955, x1 = 0.005178	1.84
308.15 K, x2 = 0.0008958, x1 = 0.004829	1.75
308.15 K, x2 = 0.0008962, x1 = 0.004449	1.66
308.15 K, x2 = 0.0008966, x1 = 0.004032	1.57
308.15 K, x2 = 0.000897, x1 = 0.003578	1.44
308.15 K, x2 = 0.0008974, x1 = 0.003077	1.26
308.15 K, x2 = 0.0008979, x1 = 0.002527	1.07
308.15 K, x2 = 0.0008985, x1 = 0.001914	0.861
308.15 K, x2 = 0.0008988, x1 = 0.001516	0.717
308.15 K, x2 = 0.0008992, x1 = 0.001125	0.574
308.15 K, x2 = 0.0008996, x1 = 0.0006754	0.425
308.15 K, x2 = 0.001793, x1 = 0.003365	1.36
308.15 K, x2 = 0.001794, x1 = 0.002774	1.17
308.15 K, x2 = 0.001795, x1 = 0.002116	0.934
308.15 K, x2 = 0.001796, x1 = 0.001701	0.79
308.15 K, x2 = 0.001797, x1 = 0.0007642	0.453
308.15 K, x2 = 0.001797, x1 = 0.001245	0.624

CC[NH3+].O=[N+]([O-])[O-] + CC[N+](CC)(CC)CC.O=[N+]([O-])[O-]
Conditions	viscosity [mPa·s]
338.15 K, 101 kPa, x2 = 0	12.5

C1CN=C2CCCN2C1 + O=S(=O)([N-]S(=O)(=O)C(F)(F)F)C(F)(F)F.[Li+]
101 kPa, frequency 0 MHz, x1 = 0.8
Conditions	electrical conductivity [S/m]
338.15 K	0.0385
368.15 K	0.152

101 kPa, x1 = 0.8
Conditions	viscosity [mPa·s]
338.15 K	236
368.15 K	37.77

CC[n+]1ccn(C)c1.N#C[S-] + CCO
101 kPa
Conditions	viscosity [mPa·s]
283.15 K, x1 = 0.8045	22.86
283.15 K, x1 = 0.8971	29.28
293.15 K, x1 = 0.8971	20.53
303.15 K, x1 = 0.0504	1.31
303.15 K, x1 = 0.2012	2.31
303.15 K, x1 = 0.951	17.12
313.15 K, x1 = 0.0504	1.1
313.15 K, x1 = 0.6016	6.04
313.15 K, x1 = 0.7018	7.47
313.15 K, x1 = 0.8971	11.5
313.15 K, x1 = 1	14.3
323.15 K, x1 = 0.7018	6.02
323.15 K, x1 = 0.951	10.17

Source: the CheMixHub ionic liquid set
